The structures appear in SMILES notation.

What is called melting point is the temperature of the solid-liquid transition.

The compound `Cc1cc(NS(=O)(=O)c2ccc(Cl)cc2)cc(C)c1S(=O)(=O)C[N+](=O)[O-]` had a melting point of 160 to 162 °C.

For the compound `Cc1c(-c2cccnc2)n(CCOc2ccc(C(=O)O)cc2)c2ccccc12`, the melting point is 190 to 193 °C.

On to `CC(C)(COc1ccc(CC2SC(=O)NC2=O)cc1)c1ccccc1` (stereo not drawn), for which the melting point fell in the range of 107 to 108 °C.

Consider `CN(C)CC1CCn2c(c(C3=C(c4csc5ccccc45)C(=O)NC3=O)c3ccccc32)C1` (stereo not drawn), for which the melting point is 285 to 286 °C.

For `COc1cc(S(=O)(=O)CCO)ccc1[N+](=O)[O-]`, the melting point lay within 95 to 96 °C.

For the compound `O=C1NC(=O)C(=Cc2ccc(OCCN3c4ccccc4Sc4ccccc43)cc2)S1`, the melting point fell in the range of 168 to 170 °C.

The compound `CC(C)c1ncc(OCc2ccccc2)c(O)n1` had a melting point of 198 °C.

With `CC(C)(C)c1cc(P(c2ccccc2)c2cc(C(C)(C)C)c(O)c(C(C)(C)C)c2)cc(C(C)(C)C)c1O`, the melting point lay in the range of 138 to 140 °C.

For the compound `CCOC(=O)c1ccc(N2CCC(N)CC2)nc1`, the melting point lay within 148 to 150 °C.

For the compound `OCC1CC(n2c(Br)nc3cc(Cl)c(Cl)cc32)C(O)C1O` (stereo not drawn), the melting point fell in the range of 208 to 211 °C.

In turn, `CO/C=C(/C(=O)OC)c1ccccc1COc1nc(C(F)(F)F)sc1C` came in with a melting point of 59 °C.

As to `CCOC(=O)[C@H](CCSCC)NC(=O)C(CSC(C)=O)Cc1ccccc1` (stereo partly drawn), the melting point was 79 to 84 °C.

As to `COc1ccc2c(O)cc(=O)oc2c1C`, the melting point was in the range of 195 to 197 °C.

Compound `NS(=O)(=O)c1ccc(-n2nc(C(F)F)cc2-c2ccc3c(c2)OCO3)cc1` registered a melting point of 214 to 218 °C.

On to `COC(=O)c1ccccc1NC(=O)C=C(c1ccc(Cl)cc1)c1ccc(Cl)cc1`, for which the melting point is 141 to 143 °C.

The compound `CCOC(=O)c1cnn(-c2ccc(OC)c(C#N)c2)c1N` gave a melting point of 195 to 196 °C.

Consider `O=C(O)Cn1c(=O)c(=O)[nH]c2ccc3ccc(-n4ccc(CN5CC=C(c6ccccc6)CC5)c4)cc3c21`, for which the melting point was more than 250 °C.

The compound `CCOP(=O)(CC(N)=S)OCC` returned a melting point of 73 to 75 °C.

Compound `CC(C)CC(NC(=O)OCc1ccccc1)C(=O)NC(C#N)COCc1ccccc1` (stereo not drawn) had a melting point of 126 to 127 °C.

Regarding `Cn1c(COc2ccc(CC3SC(=O)N(C(c4ccccc4)(c4ccccc4)c4ccccc4)C3=O)cc2)nc2cncnc21` (stereo not drawn), the melting point lay in the range of 55 to 65 °C.

The compound `CCOC(=O)c1[nH]c(C)c(CC(C)C)c1C` came in with a melting point of 115 to 117 °C.

Take `COC(C)CN(C)CC=CC(=O)Nc1cc2c(Nc3ccc(F)c(Cl)c3)ncnc2cc1OCC1CC1` (stereo not drawn): the melting point was in the range of 123 to 125 °C.

On to `O=Cc1cnc(Br)cn1`, for which the melting point fell in the range of 56 to 58 °C.

As to `CCOC(=O)C1=C(COCCNc2nccc(=O)[nH]2)NC(C)=C(C(=O)OC)C1c1ccccc1Cl` (stereo not drawn), the melting point is 148 to 150 °C.

For `CC(C)OC(=O)N1CCC(c2nc3ccc(-c4ccc(C(N)=O)c(F)c4)cc3o2)CC1`, the melting point lay in the range of 178 to 181 °C.

As to `CCOC(=O)c1nnc2ccc(NS(C)(=O)=O)cc2c1O`, the melting point was in the range of 274 to 275 °C.

For the compound `COc1ccc(S(=O)(=O)N(CCC(C)C)CC(O)C(Cc2ccccc2)NC(=O)C(C)CS(C)(=O)=O)cc1` (stereo not drawn), the melting point lay in the range of 125 to 129 °C.

In turn, `ON=C1CN2[C@H]3CC[C@@H]2[C@@H]1[C@@H](c1ccc(Cl)c(Cl)c1)C3` gave a melting point of 45 to 52 °C.

The compound `Cc1cc2oc(=O)c3c(c2cc1[N+](=O)[O-])CCN(CCN1CC2CCC(CC2)C1)C3` gave a melting point of 187 to 188 °C.

`Cc1cccc(C(=O)O)c1N(C)S(=O)(=O)c1ccc(OCCCCNC(=O)c2cc3ccccc3o2)cc1` gave a melting point of more than 200 °C.

Regarding `Cc1nc(NC(=O)NS(=O)(=O)C(Cl)C(C)Cl)nc(C)c1Cl` (stereo not drawn), the melting point was 161 to 162 °C.

`CCc1nc2c(N)nc3cc(CCC(=O)N4CCOCC4)ccc3c2n1CC(C)(C)O` came in with a melting point of 237 to 239 °C.

`CCOC(=O)c1c(-c2ccccc2)c2c3ccccc3cnn2c1C(C)C` showed a melting point of 141 to 142 °C.

With `CCOC(=O)c1cnc2c([N+](=O)[O-])cccc2c1Cl`, the melting point lay within 253 to 254 °C.

For `Cc1c(C#N)c(N)n(-c2ccc([N+](=O)[O-])cc2)c1C`, the melting point turned out to be 310 °C.

`COc1ccc(C(=O)Nc2ccccc2)cc1NC(=S)Nc1cccc([N+](=O)[O-])c1` had a melting point of 188 to 189 °C.

As to `CN(C)c1ccc(CC(CS)C(=O)Nc2cccc(C(=O)O)c2)cc1` (stereo not drawn), the melting point is 91 to 93 °C.

`CSc1nc(-c2ccccn2)n(-c2ccc(C)cc2)c(=O)c1C#N`: the melting point fell in the range of 247 to 248 °C.

As to `Fc1ccc(Cn2c(NC3CCN(CCOc4nccs4)CC3)nc3ccccc32)cc1`, the melting point worked out at 156 °C.

Take `COc1cc(-n2c(OC)nc(C(F)(F)F)cc2=O)c(F)cc1Br`: the melting point was 175 to 177 °C.

The compound `CC(C)(C)OC(=O)NC(CO)c1ccc(F)cc1` (stereo not drawn) had a melting point of 85 to 86 °C.

With `COC(=O)CCCCCCCNC(=O)C(CSC(C)=O)Cc1ccccc1` (stereo not drawn), the melting point lay within 44 to 45 °C.

Regarding `Cc1nc(Nc2ccccc2)sc1-c1cccnc1`, the melting point was in the range of 178 to 180 °C.

Turning to `CCCCCCCCCCCCCCCCCC(=O)Oc1cc(C=CC(=O)c2ccccc2)cc([N+](=O)[O-])c1O`, the melting point was in the range of 112 to 118 °C.

Regarding `O=C(NC1N=C(c2ccccc2)c2ccccc2NC1=O)c1ccc2ccccc2c1` (racemic), the melting point was 293 to 294 °C.

With `CC(N)=CC(=O)C1=C(C)CCCC1(C)C`, the melting point was 124 to 125 °C.

On to `COc1ccccc1C(=NO)c1sccc1Br`, for which the melting point was 129 to 130 °C.

On to `N#Cc1cc(Cl)ccc1NC(=O)C(F)(F)F`, for which the melting point was in the range of 105 to 107 °C.

`CC(C)(C)OC(=O)C(Cc1ccccc1)NC(=O)c1ccc2c(Cl)cnc(Cl)c2c1` (racemic): the melting point is 156 to 157 °C.

The compound `NS(=O)(=O)c1cccc(C=O)c1` returned a melting point of 108 to 109 °C.

With `Cn1c(C(F)(F)F)cc(C#N)c1-c1ccc(Cl)c(Cl)c1`, the melting point came to 130 °C.

Turning to `Nc1ncnc2c1ccn2C1C=CC(CO)C1` (stereo not drawn), the melting point was in the range of 165 to 168 °C.

`Cc1cc(O)c(C2CCCCC2)cc1Sc1cc(C2CCCCC2)c(O)cc1C` yielded a melting point of 128 to 130 °C.

For `O=C(/C=C/c1c(Cl)cccc1Cl)/C=C/c1c(Cl)cccc1Cl`, the melting point was in the range of 145 to 146 °C.

The compound `CCc1cccc(C)c1CNc1cc(C(=O)N(C)C)cn2c(C)nnc12` had a melting point of 201 °C.

`Nc1cnc(NCC2CCCCC2)nc1O` displayed a melting point of 180 °C.

On to `CN(C)CCCC1(O)c2ccccc2C=Cn2cc(C#N)cc21` (stereo not drawn), for which the melting point was 123 to 126 °C.

Turning to `O=C(O)CCNC(=O)NCCCCC1CCSS1` (stereo not drawn), the melting point was 108 to 110 °C.

For `CS(=O)(=O)c1nnc(-c2ccnc(Nc3cccc(C(F)(F)F)c3)c2)o1`, the melting point was 105 to 106 °C.

The compound `CNCCc1[nH]c2ccccc2c1-c1ccccc1` showed a melting point of 148 to 151 °C.

Consider `O=Cc1cncc(Br)c1`, for which the melting point is 95 °C.

Compound `CC(=O)c1ccc(N2CCN(CCC(=O)O)CC2)cc1` returned a melting point of 204 to 206 °C.

Compound `COc1ccccc1C(C)(O)c1ocnc1C` (stereo not drawn) had a melting point of 74 to 75 °C.

These data come from a melting point compilation (Tetko et al.; mined from patent text by program, amines drawn as free bases though some values may be those of a salt).
